The values below come from patent US20230123334A1, “AMINO LIPID COMPOUND, PREPARATION METHOD THEREFOR, AND APPLICATION THEREOF” (SHENZHEN SHENXIN BIOTECHNOLOGY CO., LTD., priority 2020, published 2023).

Each structure is given as a SMILES string.

Test [1] relates to HEK293 cells. The experiment in a line: Preliminary screening as DNA vectors, GFP transfection of HEK293 cells. Type of test: cell-based. Conditions: HEK293 cells; lipid/DOPE liposome with 75 ng plasmid DNA (psin-EGFP-IRES-Puro); number of cells expressing GFP divided by total number of nuclei (Hoechst). An outline of the steps:
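First, amino lipid and DOPE were vortexed in sodium acetate buffer (pH 5.6) to form liposomes. Next, these were held with 75 ng EGFP plasmid at room temperature for 30 min. Finally, HEK293 cells were added, cultured at 37° C., Hoechst-stained, and GFP+/total nuclei scored by imaging.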

Test [2] has as its system HEK293 cells. Kind of test: Preliminary screening as mRNA vectors, EGFP mRNA transfection of HEK293 cells. Type of test: cell-based. The note with it: HEK293 cells, 96-well plates, EGFP mRNA 50 ng per well; percentage of GFP fluorescent cells relative to total number of cells (Hoechst). Summed up:
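Screening format: EGFP mRNA transfection (50 ng/well) into HEK293 in 10% FBS-supplemented DMEM. Percent green fluorescent cells, normalised to Hoechst nuclear count, gave the value; Lipofectamine2000 was the reference transfectant.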

With `CCCCCCCCCCCCN(CCCCCCCCCCCC)c1nc(NCCCCCC)nc(NCCN(CC)CC)n1` [N6^2N12D7], in the test with HEK293 cells [1], the “Absolute DNA transfection efficiency in HEK293 cells” value (“Absolute DNA transfection efficiency” below) was found to be 0.1%. Moreover, the “Absolute mRNA transfection efficiency in HEK293 cells” value (“Absolute mRNA transfection efficiency” for short) in the test with HEK293 cells [2] is 0.3%.
Regarding `CCCCCCCCCCCCN(CCCCCCCCCCCC)c1nc(NCCCCCC)nc(NCCCN2CCOCC2)n1` [N6^2N12D8], the “Absolute DNA transfection efficiency” value in the test on HEK293 cells [1] is listed as 0.0%. The “Absolute mRNA transfection efficiency” value in the test with HEK293 cells [2] came to 0.0%.
For `CCCCCCCCCCCCN(CCCCCCCCCCCC)c1nc(NCCCCCC)nc(NCCCN2CCN(C)CC2)n1` [N6^2N12D9], the “Absolute DNA transfection efficiency” value in the test on HEK293 cells [1] amounted to 0.0%. In addition, the “Absolute mRNA transfection efficiency” value in the test on HEK293 cells [2] stood at 0.0%.
For `CCCCCCCCCCCCN(CCCCCCCCCCCC)c1nc(NCCCCCC)nc(NCC2CCN(C)CC2)n1` [N6^2N12D10], in the test on HEK293 cells [1], the “Absolute DNA transfection efficiency” value is listed as 0.4%. Also, the “Absolute mRNA transfection efficiency” value in the test with HEK293 cells [2] stood at 0.0%.
The corresponding values for `CCCCCCCCCCCCN(CCCCCCCCCCCC)c1nc(NCCCCCCC)nc(NCCN(C)C)n1` [N7^2N12D1] are 3.6% and 3.5%.
Consider `CCCCCCCCCCCCN(CCCCCCCCCCCC)c1nc(NCCCCCCC)nc(NCCN2CCOCC2)n1` [N7^2N12D2], for which, in the test on HEK293 cells [1], the “Absolute DNA transfection efficiency” value stood at 1.7%. For the same compound, in the test on HEK293 cells [2], the “Absolute mRNA transfection efficiency” value is on record as 0.9%.
Consider `CCCCCCCCCCCCN(CCCCCCCCCCCC)c1nc(NCCCCCCC)nc(NCCN2CCCC2)n1` [N7^2N12D3], for which the “Absolute DNA transfection efficiency” value with HEK293 cells [1] is 2.5%. In addition, the “Absolute mRNA transfection efficiency” value with HEK293 cells [2] is on record as 6.8%.
As for `CCCCCCCCCCCCN(CCCCCCCCCCCC)c1nc(NCCCCCCC)nc(NCCN2CCCCC2)n1` [N7^2N12D4], the “Absolute DNA transfection efficiency” value in the test on HEK293 cells [1] amounted to 1.2%. Moreover, the “Absolute mRNA transfection efficiency” value with HEK293 cells [2] worked out at 3.7%.
For `CCCCCCCCCCCCN(CCCCCCCCCCCC)c1nc(NCCCCCCC)nc(NCCN2CCN(C)CC2)n1` [N7^2N12D5] the same measures were 0.9% and 2.4%.
The corresponding values for `CCCCCCCCCCCCN(CCCCCCCCCCCC)c1nc(NCCCCCCC)nc(NCCCN(C)C)n1` [N7^2N12D6] are 0.7% and 4.8%.
Regarding `CCCCCCCCCCCCN(CCCCCCCCCCCC)c1nc(NCCCCCCC)nc(NCCN(CC)CC)n1` [N7^2N12D7], in the test on HEK293 cells [1], the “Absolute DNA transfection efficiency” value turned out to be 0.6%. Also, the “Absolute mRNA transfection efficiency” value in the test with HEK293 cells [2] is given as 1.9%.
The corresponding values for `CCCCCCCCCCCCN(CCCCCCCCCCCC)c1nc(NCCCCCCC)nc(NCCCN2CCOCC2)n1` [N7^2N12D8] are 1.6% and 2.7%.
The corresponding values for `CCCCCCCCCCCCN(CCCCCCCCCCCC)c1nc(NCCCCCCC)nc(NCCCN2CCN(C)CC2)n1` [N7^2N12D9] are 1.9% and 5.4%.
For `CCCCCCCCCCCCN(CCCCCCCCCCCC)c1nc(NCCCCCCC)nc(NCC2CCN(C)CC2)n1` [N7^2N12D10] the same measures were 1.4% and 2.0%.
On to `CCCCCCCCCCCCN(CCCCCCCCCCCC)c1nc(NCCCCCCCC)nc(NCCN(C)C)n1` [N8^2N12D1], for which the “Absolute DNA transfection efficiency” value with HEK293 cells [1] was 0.0%. In the test with HEK293 cells [2], the “Absolute mRNA transfection efficiency” value was determined as 0.2%.
The corresponding values for `CCCCCCCCCCCCN(CCCCCCCCCCCC)c1nc(NCCCCCCCC)nc(NCCN2CCOCC2)n1` [N8^2N12D2] are 0.1% and 1.4%.
For `CCCCCCCCCCCCN(CCCCCCCCCCCC)c1nc(NCCCCCCCC)nc(NCCN2CCCC2)n1` [N8^2N12D3] the same measures were 0.1% and 0.9%.
Regarding `CCCCCCCCCCCCN(CCCCCCCCCCCC)c1nc(NCCCCCCCC)nc(NCCN2CCCCC2)n1` [N8^2N12D4], the “Absolute DNA transfection efficiency” value with HEK293 cells [1] is on record as 0.0%. In addition, the “Absolute mRNA transfection efficiency” value with HEK293 cells [2] is recorded as 0.2%.
For `CCCCCCCCCCCCN(CCCCCCCCCCCC)c1nc(NCCCCCCCC)nc(NCCN2CCN(C)CC2)n1` [N8^2N12D5], in the test with HEK293 cells [1], the “Absolute DNA transfection efficiency” value worked out at 0.0%. Besides, the “Absolute mRNA transfection efficiency” value with HEK293 cells [2] is 0.4%.
As to `CCCCCCCCCCCCN(CCCCCCCCCCCC)c1nc(NCCCCCCCC)nc(NCCCN(C)C)n1` [N8^2N12D6], the “Absolute DNA transfection efficiency” value with HEK293 cells [1] came to 0.0%. Moreover, the “Absolute mRNA transfection efficiency” value in the test on HEK293 cells [2] was determined as 0.9%.
Regarding `CCCCCCCCCCCCN(CCCCCCCCCCCC)c1nc(NCCCCCCCC)nc(NCCN(CC)CC)n1` [N8^2N12D7], in the test with HEK293 cells [1], the “Absolute DNA transfection efficiency” value is 0.0%. Further, in the test on HEK293 cells [2], the “Absolute mRNA transfection efficiency” value is listed as 0.0%.
In the case of `CCCCCCCCCCCCN(CCCCCCCCCCCC)c1nc(NCCCCCCCC)nc(NCCCN2CCOCC2)n1` [N8^2N12D8], the “Absolute DNA transfection efficiency” value with HEK293 cells [1] came to 0.2%. Besides, in the test on HEK293 cells [2], the “Absolute mRNA transfection efficiency” value came to 2.0%.
The corresponding values for `CCCCCCCCCCCCN(CCCCCCCCCCCC)c1nc(NCCCCCCCC)nc(NCCCN2CCN(C)CC2)n1` [N8^2N12D9] are 0.2% and 0.4%.
In the case of `CCCCCCCCCCCCN(CCCCCCCCCCCC)c1nc(NCCCCCCCC)nc(NCC2CCN(C)CC2)n1` [N8^2N12D10], the “Absolute DNA transfection efficiency” value in the test on HEK293 cells [1] stood at 0.0%. Further, in the test on HEK293 cells [2], the “Absolute mRNA transfection efficiency” value is listed as 2.7%.
For `CCCCCCCCCCCCN(CCCCCCCCCCCC)c1nc(NCCCCCCCCC)nc(NCCN(C)C)n1` [N9^2N12D1] the same measures were 0.0% and 4.7%.
For `CCCCCCCCCCCCN(CCCCCCCCCCCC)c1nc(NCCCCCCCCC)nc(NCCN2CCOCC2)n1` [N9^2N12D2] the same measures were 0.0% and 1.3%.
The corresponding values for `CCCCCCCCCCCCN(CCCCCCCCCCCC)c1nc(NCCCCCCCCC)nc(NCCN2CCCC2)n1` [N9^2N12D3] are 0.4% and 2.3%.
For the compound `CCCCCCCCCCCCN(CCCCCCCCCCCC)c1nc(NCCCCCCCCC)nc(NCCN2CCCCC2)n1` [N9^2N12D4], in the test on HEK293 cells [1], the “Absolute DNA transfection efficiency” value turned out to be 0.0%. The “Absolute mRNA transfection efficiency” value in the test on HEK293 cells [2] came to 0.4%.
The corresponding values for `CCCCCCCCCCCCN(CCCCCCCCCCCC)c1nc(NCCCCCCCCC)nc(NCCN2CCN(C)CC2)n1` [N9^2N12D5] are 0.0% and 1.8%.
The corresponding values for `CCCCCCCCCCCCN(CCCCCCCCCCCC)c1nc(NCCCCCCCCC)nc(NCCCN(C)C)n1` [N9^2N12D6] are 0.3% and 0.8%.
For `CCCCCCCCCCCCN(CCCCCCCCCCCC)c1nc(NCCCCCCCCC)nc(NCCN(CC)CC)n1` [N9^2N12D7] the same measures were 0.0% and 0.2%.
With `CCCCCCCCCCCCN(CCCCCCCCCCCC)c1nc(NCCCCCCCCC)nc(NCCCN2CCOCC2)n1` [N9^2N12D8], the “Absolute DNA transfection efficiency” value with HEK293 cells [1] stood at 0.0%. The “Absolute mRNA transfection efficiency” value with HEK293 cells [2] is on record as 0.3%.
With `CCCCCCCCCCCCN(CCCCCCCCCCCC)c1nc(NCCCCCCCCC)nc(NCCCN2CCN(C)CC2)n1` [N9^2N12D9], the “Absolute DNA transfection efficiency” value with HEK293 cells [1] amounted to 0.0%. Also, the “Absolute mRNA transfection efficiency” value with HEK293 cells [2] is given as 3.9%.
The corresponding values for `CCCCCCCCCCCCN(CCCCCCCCCCCC)c1nc(NCCCCCCCCC)nc(NCC2CCN(C)CC2)n1` [N9^2N12D10] are 0.0% and 2.9%.
For `CCCCCCCCCCCCNc1nc(NCCN(C)C)nc(N(CCCCCCCCCCCC)CCCCCCCCCCCC)n1` [N12^2N12D1] the same measures were 0.5% and 2.8%.
The corresponding values for `CCCCCCCCCCCCNc1nc(NCCN2CCOCC2)nc(N(CCCCCCCCCCCC)CCCCCCCCCCCC)n1` [N12^2N12D2] are 0.4% and 0.3%.
As for `CCCCCCCCCCCCNc1nc(NCCN2CCCC2)nc(N(CCCCCCCCCCCC)CCCCCCCCCCCC)n1` [N12^2N12D3], in the test on HEK293 cells [1], the “Absolute DNA transfection efficiency” value was found to be 3.2%. Further, the “Absolute mRNA transfection efficiency” value with HEK293 cells [2] is reported as 5.8%.
As for `CCCCCCCCCCCCNc1nc(NCCN2CCCCC2)nc(N(CCCCCCCCCCCC)CCCCCCCCCCCC)n1` [N12^2N12D4], the “Absolute DNA transfection efficiency” value in the test on HEK293 cells [1] is listed as 2.5%. Further, the “Absolute mRNA transfection efficiency” value in the test with HEK293 cells [2] is listed as 2.6%.
For `CCCCCCCCCCCCNc1nc(NCCN2CCN(C)CC2)nc(N(CCCCCCCCCCCC)CCCCCCCCCCCC)n1` [N12^2N12D5] the same measures were 0.5% and 2.2%.
On to `CCCCCCCCCCCCNc1nc(NCCCN(C)C)nc(N(CCCCCCCCCCCC)CCCCCCCCCCCC)n1` [N12^2N12D6], for which the “Absolute DNA transfection efficiency” value in the test with HEK293 cells [1] is recorded as 3.6%. For the same compound, the “Absolute mRNA transfection efficiency” value with HEK293 cells [2] was 1.2%.
As to `CCCCCCCCCCCCNc1nc(NCCN(CC)CC)nc(N(CCCCCCCCCCCC)CCCCCCCCCCCC)n1` [N12^2N12D7], the “Absolute DNA transfection efficiency” value in the test with HEK293 cells [1] was found to be 2.2%. Further, the “Absolute mRNA transfection efficiency” value in the test with HEK293 cells [2] was determined as 2.0%.
